# Test results published in ChEMBL document CHEMBL6109087, “Design and synthesis of azole derivatives of echinocystic acid as α-glucosidase inhibitors with hypoglycemic activity” (Eur J Med Chem, 2025).
# Calls of active or inactive are those of the source. No cut-off for these calls is given here.
# Legend:
# Alpha-glucosidase [1] = target: T1, Alpha-glucosidase (Saccharomyces cerevisiae S288c, UniProt P53341+P38158+P07265); assay: Binding affinity to alpha-glucosidase assessed as inhibition constant; assay type: protein assay
# [2] = target: T2, Alpha-glucosidase (Saccharomyces cerevisiae S288c) (UniProt P53341+P38158+P07265); assay: Inhibition of alpha-glucosidase using 4-Nitrophenyl-[…]-D-glucopyranoside (pNPG) as substrate assessed as inhibition rate at 30 uM relative control; assay type: protein assay
# Alpha-glucosidase [3] = target: T1, Alpha-glucosidase; assay: Inhibition of alpha-glucosidase using 4-Nitrophenyl-[…]-D-glucopyranoside (pNPG) as substrate; assay type: protein assay
# [4] = Cytotoxicity against human LO2 cells assessed as cell viability measured after 24 hrs by MTT assay; assay type: toxicity, cell-based, L02
# [5] = test system: alpha-glucosidase (unknown origin); assay: Selectivity index, ratio of CC50 for Cytotoxicity against human LO2 cells to IC50 for alpha-glucosidase (unknown origin); assay type: toxicity, cell-based, L02; details: read-out: Selectivity Index
# [6] = target: T2, Alpha-glucosidase (Saccharomyces cerevisiae S288c); assay: Mixed-type of inhibition at alpha-glucosidase assessed as decrease in Km by Lineweaver-Burk plot analysis; assay type: protein assay
# [7] = target: T2, Alpha-glucosidase (Saccharomyces cerevisiae S288c); assay: Mixed-type of inhibition at alpha-glucosidase assessed as decrease in Vmax by Lineweaver-Burk plot analysis; assay type: protein assay
# Alpha-glucosidase [8] = target: T1, Alpha-glucosidase; assay: Binding affinity to alpha-glucosidase assessed as inhibition constant for protein substrate (alpha-Glu-pNPG) complex; assay type: protein assay
# [9] = target: T2, Alpha-glucosidase (Saccharomyces cerevisiae S288c); assay: Binding affinity to alpha-glucosidase assessed as quenching by measuring decrease in fluorescent intensity at 0 to 8 uM; assay type: protein assay; details: dose 0-8 µM
# [10] = target: T2, Alpha-glucosidase (Saccharomyces cerevisiae S288c); assay: Binding affinity to alpha-glucosidase assessed as quenching by measuring decrease in fluorescent intensity by […] fluorescence spectroscopy; assay type: protein assay
# [11] = target: T2, Alpha-glucosidase (Saccharomyces cerevisiae S288c); assay: Binding affinity to alpha-glucosidase assessed as fluorescent intensity (lambda-ex/lambda-em 285/320 nm) by 3D fluorescence spectra; assay type: protein assay
# [12] = target: T2, Alpha-glucosidase (Saccharomyces cerevisiae S288c); assay: Binding affinity to alpha-glucosidase assessed as fluorescent intensity (lambda-ex/lambda-em 276/332 nm) by 3D fluorescence spectra; assay type: protein assay
# [13] = Acute toxicity in C57BL/6J mouse assessed as signs of death or toxicity at 0.5 g/Kg single dose monitored over 14 days; details: in vivo, 500 mg/kg, 336 h, time 14 day
# [14] = Acute toxicity in C57BL/6J mouse assessed as change in serum ALB level at 0.5 g/Kg single dose; details: in vivo, 500 mg/kg
# [15] = Acute toxicity in C57BL/6J mouse assessed as change in serum AST level at 0.5 g/Kg single dose; details: in vivo, 500 mg/kg
# [16] = Acute toxicity in C57BL/6J mouse assessed as change in serum ALT level at 0.5 g/Kg single dose; details: in vivo, 500 mg/kg
# [17] = Acute toxicity in C57BL/6J mouse assessed as change in serum BUN level at 0.5 g/Kg single dose; details: in vivo, 500 mg/kg
# [18] = Acute toxicity in C57BL/6J mouse assessed as pathological damages in heart at 0.5 g/Kg single dose by HE staining based analysis; assay type: tissue-based; details: in vivo, 500 mg/kg
# [19] = Acute toxicity in C57BL/6J mouse assessed as pathological damages in liver at 0.5 g/Kg single dose by HE staining based analysis; assay type: tissue-based; details: in vivo, 500 mg/kg
# [20] = Acute toxicity in C57BL/6J mouse assessed as pathological damages in spleen at 0.5 g/Kg single dose by HE staining based analysis; assay type: tissue-based; details: in vivo, 500 mg/kg
# [21] = Acute toxicity in C57BL/6J mouse assessed as pathological damages in lung at 0.5 g/Kg single dose by HE staining based analysis; assay type: tissue-based; details: in vivo, 500 mg/kg
# [22] = Acute toxicity in C57BL/6J mouse assessed as pathological damages in kidney at 0.5 g/Kg single dose by HE staining based analysis; assay type: tissue-based; details: in vivo, 500 mg/kg
# [23] = Acute toxicity in C57BL/6J mouse assessed as pathological damages in brain at 0.5 g/Kg single dose by HE staining based analysis; assay type: tissue-based; details: in vivo, 500 mg/kg
# Mus musculus [24] = assay: Reduction in blood glucose concentration in male C57BL/6J mouse assessed as peak blood glucose and glucose AUC preadministered for 30 mins via gavage followed by treated 2 g/Kg of sucrose and measured up to 120 mins post sucrose challenge by sucrose loading test; assay type: functional, organism-based; details: dose 100.0 mg/kg, time 150.0 min
# Mus musculus [25] = assay: In vivo hypoglycemic effect in STZ-induced diabetic C57BL/6J mouse model assessed as decrease in fasting blood glucose at 100 mg/kg treated via gavage measured after 7 days by fasting blood glucose test; assay type: functional, organism-based; details: time 7.0 day
# [26] = Toxicity in STZ-induced diabetic C57BL/6J mouse model assessed as body weight at 100 mg/kg treated via gavage measured after 7 days; assay type: organism-based; details: in vivo, po, 168 h, time 7 day
# Mus musculus [27] = assay: In vivo hypoglycemic effect in STZ-induced diabetic C57BL/6J mouse model assessed as decrease in postprandial blood glucose at 100 mg/kg treated via gavage measured up to 120 mins by Oral glucose tolerance test (OGTT); assay type: functional, organism-based
# Mus musculus [28] = assay: Reduction in triglycerides (TG) level in STZ-induced diabetic C57BL/6J mouse model treated via gavage by blood biochemistry index test; assay type: functional, organism-based; details: dose 25-100 mg/kg
# Mus musculus [29] = assay: Reduction in total cholesterol (CHO) level in STZ-induced diabetic C57BL/6J mouse model treated via gavage by blood biochemistry index test; assay type: functional, organism-based
# Mus musculus [30] = assay: Reduction in low density lipoproteins (LDL) level in STZ-induced diabetic C57BL/6J mouse model treated via gavage by blood biochemistry index test; assay type: functional, organism-based
# Mus musculus [31] = assay: Induction of high density lipoproteins (HDL) level in STZ-induced diabetic C57BL/6J mouse model treated via gavage by blood biochemistry index test; assay type: functional, organism-based
# Mus musculus [32] = assay: Anti-oxidant effect in level in STZ-induced diabetic C57BL/6J mouse model assessed as […] in malondialdehyde (MDA) level in serum at 100 mg/kg treated via gavage; assay type: functional, organism-based
# Mus musculus [33] = assay: Anti-oxidant effect in level in STZ-induced diabetic C57BL/6J mouse model assessed as […] in glutathione (GSH) level in serum at 100 mg/kg treated via gavage; assay type: functional, organism-based
# Mus musculus [34] = assay: Anti-oxidant effect in level in STZ-induced diabetic C57BL/6J mouse model assessed as […] in total superoxide dismutase (T-SOD) level in serum at 100 mg/kg treated via gavage; assay type: functional, organism-based
# Mus musculus [35] = assay: Anti-oxidant effect in level in STZ-induced diabetic C57BL/6J mouse model assessed as […] in catalase (CAT) level in serum at 100 mg/kg treated via gavage; assay type: functional, organism-based
structure (smiles),measurement,setting,value
CC1(C)CC[C@]2(C(=O)NCc3cn(-c4ccc(Cl)c(Cl)c4)nn3)[C@H](O)C[C@]3(C)C(=CC[C@@H]4[C@@]5(C)CC[C@H](O)C(C)(C)[C@@H]5CC[C@]43C)[C@@H]2C1,Ki,Alpha-glucosidase [1],15.31 µM
same,inhibition,[2],88.1%
same,IC50,Alpha-glucosidase [3],2.72 µM
same,CC50 at 24 h,[4],287 µM
same,selectivity ratio,[5],105
same,inhibition,[6],Active
same,inhibition,[7],Active
same,Ki,Alpha-glucosidase [8],10.23 µM
same,Activity,[9],Active
same,Activity,[10],Active
same,Activity,[11],Active
same,Activity,[12],Active
same,Activity,[13],Non-toxic
same,Activity,[14],Non-toxic
same,Activity,[15],Non-toxic
same,Activity,[16],Non-toxic
same,Activity,[17],Non-toxic
same,Activity,[18],Non-toxic
same,Activity,[19],Non-toxic
same,Activity,[20],Non-toxic
same,Activity,[21],Non-toxic
same,Activity,[22],Non-toxic
same,Activity,[23],Non-toxic
same,Activity,Mus musculus [24],Dose-dependent-effect; Compound Showed Comparable Effect To Acarbose
same,Activity,Mus musculus [25],Active
same,Activity,[26],Non-toxic
same,Activity,Mus musculus [27],Active; Evidenced By Compound Showed Lower Auc Compared With Model Group
same,Activity,Mus musculus [28],Dose-dependent-effect
same,Activity,Mus musculus [29],Dose-dependent-effect
same,Activity,Mus musculus [30],Dose-dependent-effect
same,Activity,Mus musculus [31],Dose-dependent-effect
same,Activity,Mus musculus [32],Active
same,Activity,Mus musculus [33],Active
same,Activity,Mus musculus [34],Active
same,Activity,Mus musculus [35],Active
